Reference: PubChem BioAssay (NCI)
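In this assay, cells in 96-well plates receive the compound at five concentrations for 48 hours. Endpoints are linearly interpolated between the surrounding concentrations. GI50 is the concentration that inhibits growth by half. TGI: concentration producing complete growth inhibition.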

How the values were obtained:
Test in all cases: NCI-60 cell line screen, 48 h
[1] = test system: SK-OV-3 ovarian
[2] = test system: HL-60(TB) leukemia
[3] = test system: MDA-MB-231 breast
[4] = test system: A549 NSCLC
[5] = test system: NCI-H522 lung
[6] = test system: IGROV1 ovarian
[7] = test system: MALME-3M melanoma
[8] = test system: EKVX NSCLC
[9] = test system: MDA-N
[10] = test system: 786-0 renal
[11] = test system: CCRF-CEM leukemia
[12] = test system: OVCAR-3 ovarian
[13] = test system: RXF 393 renal

Compound | TGI [1] [µM] | TGI [2] [µM] | TGI [3] [µM] | TGI [4] [µM] | TGI [5] [µM] | TGI [6] [µM] | TGI [7] [µM] | TGI [8] [µM] | TGI [9] [µM] | TGI [10] [µM] | TGI [11] [µM] | TGI [12] [µM] | TGI [13] [µM] | GI50 [2] [µM]
CN(/N=C/c1ccccc1C(=O)O)C1=NCCCCN1 | > 100 | > 100 | > 100 | > 100 | 36.7 | > 100 | > 100 | > 100 | > 100 | > 100 | > 100 | > 100 |  | 
CN(C(=O)c1ccc(Cl)cc1)C(=S)N1CCN(c2ccccc2)CC1 |  | > 100 | > 100 | > 100 | > 100 | > 100 | > 100 |  | > 100 | > 100 | > 100 | > 100 | > 100 | 
Fc1cc2nc3n(c2cc1F)C(c1c(Cl)cccc1Cl)SC3 (centres undefined) | 30.6 | 70.9 | 34.6 | 28 | 35.1 | 34 | 33.8 | 32.5 | 29.5 | 28.3 |  | 25.7 | 28.5 | 
CCCCSC1=N/C(=C\c2ccc(N(C)C)cc2)C(Cl)=N1 | > 100 |  | > 100 | > 100 | > 100 | > 100 | > 100 | > 100 | > 100 | > 100 |  | > 100 | > 100 | 
COc1ccc2c(c1)OC1c3ccccc3OCC21 (centres undefined) | > 100 | > 100 | > 100 |  |  | > 100 |  | > 100 | > 100 | > 100 | > 100 | > 100 | > 100 | 
COC(=O)[C@]1(Cc2ccc3ccccc3c2)CCCCCCN1C(=O)c1ccccc1 | > 89.8 | > 40.4 | > 53.5 | > 100 |  | > 58.2 | > 53.2 | > 50.9 | > 53.5 | > 53.2 | > 53.7 | > 43.5 | > 47.5 | 
CCOc1cc(/C=C2\N=C(c3ccccc3)N(c3nc4ccccc4s3)C2=O)ccc1O | > 100 | 73.9 | > 100 |  | 60 | > 100 |  | > 100 | > 100 | > 100 | > 100 | > 100 | > 100 | 
N#Cc1c2ccc([N+](=O)[O-])cc2c(=O)n2c1sc1ccccc12 |  | 66.1 | 49.2 | 28.5 |  |  |  |  | > 100 | > 100 | 34.4 |  |  | 
CCOC(=O)/C=C(/C(=O)OCC)n1ccc(=O)n(CC(=O)OCC)c1=O | 27.6 | 0.483 | 4.41 | 16.8 | 0.624 | 3.33 | 1.71 | 4.87 | 8.31 | 1.67 |  | 2.44 | 2.52 | 0.191
CN(C)c1c(C2CC(O)C(CO)O2)c(=O)c1=O (centres undefined) | > 100 | > 100 | > 100 | > 100 | > 100 | > 100 |  | > 100 | > 100 | > 100 |  | > 100 |  | 
C=C(C)C1CC2=C(O1)C(=O)c1cccc(O)c1C2=O (centres undefined) | 2.86 |  | 3.64 | 4.9 | 1.73 | 0.617 | 2.31 | 2.52 | 0.132 | > 100 |  | 0.924 | 2.54 | 
NC(Cc1ccc(O)cn1)C(=O)O (centres undefined) |  | > 100 | > 100 | > 100 | > 100 | > 100 | > 100 | > 100 | > 100 | > 100 |  | > 100 | > 100 | 
COc1cc(OC2OC(CO)C(O)C(O)C2O)c2c(c1)O[C@@H]1[C@H](O)Oc3cc(OC)c(OC)cc3[C@]1(O)C2=O (some centres undefined) | > 25 | > 25 | > 25 | > 25 | > 25 | > 25 |  | > 25 | > 25 | > 25 | > 25 | > 25 |  | 
NS(=O)(=O)c1nnc(NC(=O)/C=C/C(=O)O)s1 | > 100 | > 100 | > 100 | > 100 | > 100 |  | > 100 | > 100 | > 100 | > 100 |  | > 100 | > 100 | 
COC(=O)/C=C/c1cnc2c(c1)oc(=O)n2C | > 100 | > 100 | > 100 | > 100 |  | > 100 | > 100 | > 100 | > 100 | > 100 | > 100 | > 100 |  | 
CC(C)(C)OC(=O)N1CCC(NC(=O)NC2CCN(C(=O)OC(C)(C)C)CC2)CC1 |  | > 100 | > 100 | > 100 | > 100 | > 100 | > 100 | > 100 | > 100 | > 100 | > 100 | > 100 |  | 
CC(=O)OCCCCn1cnc2c(Cl)nc(Nc3ccccc3)nc21 |  | > 100 | > 100 | > 100 | 87.4 | > 100 | > 100 | > 100 | > 100 | > 100 | > 100 | > 100 |  | 
CCSc1nc(C)nc2c1sc1nc3ccccc3n12 | > 100 | > 100 | > 100 | > 100 | > 100 | > 100 |  | > 100 | > 100 | > 100 | > 100 | > 100 | > 100 | 
COc1cc2c3cc1Oc1c(OC)c(OC)cc4c1C(Cc1ccc(O)c(c1)-c1cc(ccc1OC)CC3N(C)CC2)N(C)CC4 (centres undefined) | > 100 | 15.4 | 35.4 | > 100 | 31.1 | 63.7 | 41.4 | 91.1 | 30.6 | > 100 |  | > 100 | 6.7 | 
